Assay results as given in patent publication US20090156646A1, “PYRIDYLPHENOL COMPOUND AND USE THEREOF” (TAKEDA PHARMACEUTICAL COMPANY LIMITED, priority 2005, published 2009).
Counter-ions that a name gives are not always drawn.

The compounds below were run against T1, human metastin receptor hOT7T175 (Homo sapiens, UniProt Q969F8, L364H) (assay: binding inhibiting activity: 125I-metastin (40-54) binding to cell membrane fraction of h175 KB34 cells). Conditions: room temperature 60 minutes, read-out: binding inhibiting activity, represented by the IC50 value.
T1 construct: encoding the entire length of human metastin receptor hOT7T175; expressed in transfected cells; host or cells: CHO/dhFr- cells (ATCC #CRL-9096) stably transfected with pAKKO-hOT7T175; clone h175-16 was used as whole cells for FLIPR
Protocol: cDNA fragments (SEQ ID NO: 2) encoding the entire length of human metastin receptor hOT7T175 were incorporated into expression vector pAKKO1.11H to produce animal cell expression plasmids pAKKO-hOT7T175. CHO/dhFr-cells (ATCC, #CRL-9096) were seeded onto 6 cm culture dishes (Becton Dickinson) at a density of 0.3×10^6 cells/dish, and cultured in the conditions of 48 hours, 37° C. and 5% CO2. 5 μg pAKKO-hOT7T175 plasmid DNA was transfected to the resultant cells by a known method (described in Example 3 of WO 00/24890) using the Cellphect Transfection Kit (Amersham, #27-9268-01). The DNA-transfected cells were cultured in the Dulbecco's modified Eagle medium (DMEM) (Sigma, #D6046) containing 10% dialyzed FBS (Biowest, #S180D), 1× Non-Essential Amino Acid (Invitrogen, #11140-050) and 50 μg/ml Gentamycin (Invitrogen, #15750-060; and cell strains stably expressing the plasmid genes were selected. The obtained 41 clones were treated with the FLIPR assay (in accordance with the method described in Example 3 of WO 00/24890), and the reactivity to the human metastin […] (Nos. 40 to 54 of the human metastin sequence; Peptide Institute, Inc., #4389-v) was evaluated. In the end, h175 KB34 cell strains were selected. By substantially the same method, h175-16 cell strains were also produced.
The h175 KB34 cells were cultured to be on the stage of 40-50% confluency using a cell factory (Nunc, #164327), and then cells were recovered in the following method.
First, the medium was disposed, and the cells were washed twice with 200 ml EDTA/PBS(−). Another 200 ml of EDTA/PBS(−) was added, and the cells were kept still for 20 minutes at room temperature until being peeled off. The cells were recovered into four 50 ml tubes (Becton Dickinson, #352070), and centrifuged (2,000 rpm, 10 min., 4° C.) by a reduced performance centrifuge (TOMY, RL-101). The supernatant was disposed, and the pellets in the four tubes were each suspended with 10 ml EDTA/PBS(−) and collected into one tube (Becton Dickinson, #352070). The pellet was further centrifuged (2,000 rpm, 10 min., 4° C.). The resultant pellet was suspended with 20 ml ice-cooled homogenizer buffer [10 mM NaHCO3, 2 mM EGTA, 0.2 mM magnesium acetate, 10 μg/ml Leupeptin (Peptide Institute, Inc., #4041), 10 μg/ml E-64 (Peptide Institute, Inc., # 4096), 100 μg/ml o-phenanthroline (Dojindo Laboratories), 90 μg/ml PMSF (Wako Pure Chemical Industries, Ltd.), 10 μg/ml Pepstatin A (Peptide Institute, Inc., #4397), pH7.3]. The cell suspension was homogenized 3 times, each for 30 seconds, using a Polytron homogenizer. The resultant homogenate was centrifuged (2,500 rpm, 10 min, 4° C.) using a high performance refrigerated centrifuge (Hitachi, Ltd., CR26H). The supernatant was recovered into a super-centrifuge tube, and super-centrifuged (30,000 rpm, 60 min, 4° C.) using a super-centrifuge (Hitachi, Ltd., SCP70H). 3 ml homogenizer buffer was added to the resultant pellet, and the pellet was suspended by pipetting. 3 ml glycerol (Wako Pure Chemical Industries, Ltd.) was added to the resultant suspension and diluted 2-folds. The resultant substance was used as a cell membrane fraction of the h175 KB34 cells. Each […] of the membrane fraction was put into a 1.5 ml tube (Eppendorf, #0030120.086), stored in a freezer (−30 C) so as not to be frozen, and used for a binding assay.
An assay buffer was prepared on the day of the test by adding, to each 100 ml of an assay basic buffer [20 mM Tris, 2.5 mM Magnesium Acetate, 2 mM EGTA, pH 7.4], 1 mg Leupeptin (Peptide Institute, Inc., 4041), 1 mg E-64 (Peptide Institute, Inc., 4096), 10 mg o-phenanthroline (Dojindo Laboratories), 9 mg PMSF (Wako Pure Chemical Industries, Ltd.) and 1 mg Pepstatin A (Peptide Institute, Inc., 4397). The prepared assay buffer was stored at 4° C. until being used. When the measurement was to be performed with no BSA, the above-described assay buffer was used. […]

T1 sequence (Q969F8 whole entry L364H): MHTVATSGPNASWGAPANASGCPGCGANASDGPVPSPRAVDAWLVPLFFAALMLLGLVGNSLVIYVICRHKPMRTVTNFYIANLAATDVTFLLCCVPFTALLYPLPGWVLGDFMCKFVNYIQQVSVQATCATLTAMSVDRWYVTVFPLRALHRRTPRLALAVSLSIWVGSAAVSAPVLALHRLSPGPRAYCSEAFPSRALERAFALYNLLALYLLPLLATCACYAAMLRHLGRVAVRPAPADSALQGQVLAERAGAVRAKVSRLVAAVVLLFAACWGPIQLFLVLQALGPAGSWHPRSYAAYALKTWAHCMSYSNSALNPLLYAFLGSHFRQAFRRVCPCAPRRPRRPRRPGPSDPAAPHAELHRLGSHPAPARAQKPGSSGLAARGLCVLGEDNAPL

IC50, ≤ 10 µM:
Cl.N#Cc1c(-c2cccc(NC(=O)CC3CCCCN3)c2)cc(-c2ccc(F)cc2O)nc1NC(=O)c1ccco1 (stereo not shown) [Example 290, hydrochloride]
CNCCC(=O)Nc1cccc(-c2cc(-c3ccc(F)cc3O)nc(NC(=O)c3ccco3)c2C#N)c1 [Example 313, N-(3-cyano-6-(4-fluoro-2-hydroxyphenyl)-4-{3-[(N-methyl-β-alanyl)amino]phenyl}pyridin-2-yl)-2-furamide hydrochloride]
CN1CCN(Cc2cccc(-c3cc(-c4ccc(F)cc4O)nc(NC(=O)c4ccco4)c3C#N)c2)CC1 [Example 333, N-(3-cyano-6-(4-fluoro-2-hydroxyphenyl)-4-{3-[(4-methylpiperazin-1-yl)methyl]phenyl}pyridin-2-yl)-2-furamide dihydrochloride]
N#Cc1c(-c2cccc(NC(=O)C[C@H]3CCCN3)c2)cc(-c2ccc(F)cc2O)nc1NC(=O)c1ccco1 [Example 314, N-[3-cyano-6-(4-fluoro-2-hydroxyphenyl)-4-(3-{[(2R)-pyrrolidin-2-ylacetyl]amino}phenyl)pyridin-2-yl]-2-furamide hydrochloride]
N#Cc1c(-c2cccc(CN3CCCNCC3)c2)cc(-c2ccc(F)cc2O)nc1NC(=O)c1ccco1 [Example 335, N-[3-cyano-4-[3-(1,4-diazepan-1-ylmethyl)phenyl]-6-(4-fluoro-2-hydroxyphenyl)pyridin-2-yl]-2-furamide dihydrochloride]
CN(C)CCN(C)c1cccc(-c2cc(-c3ccc(F)cc3O)nc(NC(=O)c3ccco3)c2C#N)c1 [Example 324, N-[3-cyano-4-{3-[[2-(dimethylamino)ethyl] (methyl)amino]phenyl}-6-(4-fluoro-2-hydroxyphenyl)pyridin-2-yl]-2-furamide]
N#Cc1c(-c2cccc(NC(=O)[C@H](N)Cc3c[nH]cn3)c2)cc(-c2ccc(F)cc2O)nc1NC(=O)c1ccco1 [Example 261, N-{3-[3-cyano-6-(4-fluoro-2-hydroxyphenyl)-2-(2-furoylamino)pyridin-4-yl]phenyl}-D-histidinamide hydrochloride]
COc1ccc(-c2cc(-c3cccc(NC(=O)CCN)c3)c(C#N)c(NC(=O)c3ccccc3)n2)c(O)c1 [Example 50, N-{4-[3-(β-alanylamino)phenyl]-3-cyano-6-(2-hydroxy-4-methoxyphenyl)pyridin-2-yl}benzamide trifluoroacetate]
N#Cc1c(-c2cccc(NC(=O)CCN)c2)cc(-c2ccc(Cl)cc2O)nc1NC(=O)c1ccccc1 [Example 51, N-{4-[3-(β-alanylamino)phenyl]-6-(4-chloro-2-hydroxyphenyl)-3-cyanopyridin-2-yl}benzamide trifluoroacetate]
CC(N)CC(=O)Nc1cccc(-c2cc(-c3ccc(Cl)cc3O)nc(NC(=O)c3cccn3C)c2C#N)c1 (stereo not shown) [Example 274, N-[4-{3-[(3-aminobutanoyl)amino]phenyl}-6-(4-chloro-2-hydroxyphenyl)-3-cyanopyridin-2-yl]-1-methyl-1H-pyrrole-2-carboxamide hydrochloride]
CCCC(CC(=O)Nc1cccc(-c2cc(-c3ccc(F)cc3O)nc(NC(=O)c3ccco3)c2C#N)c1)N(CC)CC (stereo not shown) [Example 317, N-[3-cyano-4-(3-{[3-(diethylamino)hexanoyl]amino}phenyl)-6-(4-fluoro-2-hydroxyphenyl)pyridin-2-yl]-2-furamide hydrochloride]
N#Cc1c(-c2cccc(NC(=O)CCN)c2)cc(-c2cc(Cl)ccc2O)nc1NC(=O)c1cccs1 [Example 46, N-{4-[3-(β-alanylamino)phenyl]-6-(5-chloro-2-hydroxyphenyl)-3-cyanopyridin-2-yl}thiophene-2-carboxamide trifluoroacetate]
CCN1CCN(c2cccc(-c3cc(-c4ccc(F)cc4O)nc(NC(=O)c4ccco4)c3C#N)c2)CC1 [Example 330, N-[3-cyano-4-[3-(4-ethylpiperazin-1-yl)phenyl]-6-(4-fluoro-2-hydroxyphenyl)pyridin-2-yl]-2-furamide hydrochloride]
N#Cc1c(-c2cccc(NC(=O)[C@@H](N)CN)c2)cc(-c2ccc(F)cc2O)nc1NC(=O)c1ccco1 [Example 302, N-[4-{3-[(3-amino-L-alanyl)amino]phenyl}-3-cyano-6-(4-fluoro-2-hydroxyphenyl)pyridin-2-yl]-2-furamide dihydrochloride]
N#Cc1c(N2CCCC(C(=O)NCCN)C2)cc(-c2ccccc2O)nc1NC(=O)c1ccco1 (stereo not shown) [Example 288, N-(2-aminoethyl)-1-[3-cyano-2-(2-furoylamino)-6-(2-hydroxyphenyl)pyridin-4-yl]piperidine-3-carboxamide hydrochloride]
N#Cc1c(-c2cccc(NC(=O)CCN)c2)cc(-c2ccc(Cl)cc2O)nc1NC(=O)c1ccno1 [Example 251, N-[4-[3-(β-alanylamino)phenyl]-6-(4-chloro-2-hydroxyphenyl)-3-cyanopyridin-2-yl]isoxazole-5-carboxamide hydrochloride]
C[C@H](N)CNC(=O)c1cccc(-c2cc(-c3ccc(Cl)cc3O)nc(NC(=O)c3ccno3)c2C#N)c1 [Example 268, N-[4-[3-({[(2S)-2-aminopropyl]amino}carbonyl)phenyl]-6-(4-chloro-2-hydroxyphenyl)-3-cyanopyridin-2-yl]isoxazole-5-carboxamide hydrochloride]
N#Cc1c(-c2cc(NC(=O)CCN)ccc2Cl)cc(-c2ccccc2O)nc1NC(=O)c1cccs1 [Example 42, N-{4-[5-(β-alanylamino)-2-chlorophenyl]-3-cyano-6-(2-hydroxyphenyl)pyridin-2-yl}thiophene-2-carboxamide dihydrochloride]
N#Cc1c(-c2cccc(NC(=O)[C@H](N)Cc3cnc[nH]3)c2)cc(-c2ccc(Cl)cc2O)nc1NC(=O)c1ccco1 [Example 253, N-{3-[6-(4-chloro-2-hydroxyphenyl)-3-cyano-2-(2-furoylamino)pyridin-4-yl]phenyl}-D-histidinamide dihydrochloride]
N#Cc1c(-c2cccc(NC(=O)CCN)c2)cc(-c2ccc(Cl)cc2O)nc1NC(=O)c1ccoc1 [Example 254, N-[4-[3-(β-alanylamino)phenyl]-6-(4-chloro-2-hydroxyphenyl)-3-cyanopyridin-2-yl]-3-furamide hydrochloride]
N#Cc1c(-c2cccc(NC(=O)CCN)c2)cc(-c2ccccc2O)nc1NC(=O)c1ccccc1 [Example 31, N-[4-(3-(β-alanylamino)phenyl)-3-cyano-6-(2-hydroxyphenyl)pyridin-2-yl]benzamide trifluoroacetate]
COc1c(NC(=O)CCN)cccc1-c1cc(-c2ccccc2O)nc(NC(=O)c2ccco2)c1C#N [Example 276, N-[4-[3-(β-alanylamino)-2-methoxyphenyl]-3-cyano-6-(2-hydroxyphenyl)pyridin-2-yl]-2-furamide hydrochloride]
